Consider 27 molecules from patent US20260001889A1, “COMPOSITIONS USEFUL FOR MODULATING SPLICING” (Skyhawk Therapeutics, Inc., priority 2022, published 2026).

Each structure is given as a SMILES string.

The test system of one test is total ATXN3 protein. Nature of the test: ATXN3 Total Protein Assay (Mesoscale Discovery, SK-N-MC cells). In kind it is cell-based, Human. The conditions noted are these: incubation for 48 hours, MSD assay. The method in brief:
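Readout: MSD electrochemiluminescence immunoassay of lysates, calibrated with recombinant ATXN3 and using mouse/rabbit anti-ATXN3 antibody pair. Cells (SK-N-MC, human) were exposed for 48 h to compound doses between 30 μM and 0.6 nM.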

In test [1] the test system is ATXN3 transcripts containing exon 4. Description: ATXN3 Quantitative Splicing Assay (qPCR, E4E5 primers/probe). In kind it is cell-based. To be noted: Homo sapiens, SK-N-MC cells, compounds for 24 h. The method in brief:
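Exon 4-containing ATXN3 transcripts are quantified by TaqMan qPCR (E4E5 primers/probe) on cell-lysate cDNA, with total ATXN3 from the E8E9 set. Source cells: human neuroblastoma SK-N-MC, exposed for 24 h to compound at 30 μM down to 0.6 nM.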

The test system of a further test is ATXN3-HiBiT protein. Description: ATXN3 Total Protein Assay (Kelly-ATXN3-HiBiT luminescence). To be noted: Kelly-ATXN3-HiBiT cells, 48 h after addition of compound. In kind it is cell-based. The method in brief:
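Endogenous ATXN3-HiBiT protein in knock-in Kelly neuroblastoma cells measured by lytic HiBiT luminescence 48 h post-compound (added 24 h after seeding 2000 cells/well). Values are fold changes relative to DMSO, with viability from a parallel CellTiter-Glo plate.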

Usually IC50 stands for the midpoint of a concentration-inhibition curve. A low value points to higher potency. What is called EC50 is the concentration at which the effect is half-maximal. The low end stands for greater potency, the high end for weaker potency. Turning to `N[C@H](Cc1oc2c(NCc3cccs3)cc(Cl)nc2c1Br)C1COC1` [Compound 98, 2-[(R)-2-amino-2-(3-oxetanyl)ethyl]-3-bromo-5-chloro-7-thenylamino-1-oxa-4-azaindene], the half-inhibitory concentration (IC50) (with total ATXN3 protein; in test [1]) was 501 to 5000 nM throughout. Besides, in the test on ATXN3-HiBiT protein, the half-maximal effective concentration (EC50) fell in the range of 501 to 5000 nM.
In the case of `C[C@H](F)[C@H](N)Cc1oc2c(NCc3cccs3)cc(C#N)nc2c1Br` [Compound 103, 2-[(2R,3S)-2-amino-3-fluorobutyl]-3-bromo-7-thenylamino-1-oxa-4-aza-5-indenecarbonitrile], the IC50 (in the test on total ATXN3 protein; in test [1]) was 101 to 500 nM in each case. For the same molecule, the concentration giving a half-maximal response (EC50) in the test with ATXN3-HiBiT protein lay in the range of 101 to 500 nM.
Consider `Cc1c(C[C@@H](N)[C@H](C)F)oc2c(NCc3ccc(F)s3)cc(Cl)nc12` [Compound 105, 2-[(2R,3S)-2-amino-3-fluorobutyl]-5-chloro-7-{[(5-fluoro-2-thienyl)methyl]amino}-3-methyl-1-oxa-4-azaindene], for which the 50% inhibitory concentration (IC50) in the test with total ATXN3 protein was in the range of 501 to 5000 nM; in test [1], 101 to 500 nM. Further, in the test with ATXN3-HiBiT protein, the 50% effective concentration (EC50) fell in the range of 501 to 5000 nM.
As to `Cc1c(C[C@@H](N)[C@H](C)F)oc2c(NCc3nccs3)cc(Cl)nc12` [Compound 106, 2-[(2R,3S)-2-amino-3-fluorobutyl]-5-chloro-3-methyl-7-{[(1,3-thiazol-2-yl)methyl]amino}-1-oxa-4-azaindene], the 50% inhibitory concentration (IC50) (with total ATXN3 protein; in test [1]) was 101 to 500 nM in each case. For the same molecule, the EC50 with ATXN3-HiBiT protein was in the range of 101 to 500 nM.
Turning to `Cc1c(C[C@@H](N)[C@H](C)F)oc2c(NCc3ccccc3)cc(Cl)nc12` [Compound 107, 2-[(2R,3S)-2-amino-3-fluorobutyl]-7-benzylamino-5-chloro-3-methyl-1-oxa-4-azaindene], the IC50 in the test with total ATXN3 protein lay within 501 to 5000 nM; in test [1] it was 101 to 500 nM. Also, the 50% effective concentration (EC50) in the test with ATXN3-HiBiT protein lay within 101 to 500 nM.
With `C[C@H](F)[C@H](N)Cc1oc2c(NCc3ccc(F)s3)cc(Cl)nc2c1Cl` [Compound 108, 2-[(2R,3S)-2-amino-3-fluorobutyl]-3,5-dichloro-7-{[(5-fluoro-2-thienyl)methyl]amino}-1-oxa-4-azaindene], the IC50 (in the test with total ATXN3 protein; in test [1]) was 101 to 500 nM each time. In the test on ATXN3-HiBiT protein, this molecule displayed an EC50 of 101 to 500 nM.
Turning to `C[C@H](F)[C@H](N)Cc1oc2c(NCc3nccs3)cc(Cl)nc2c1Cl` [Compound 109, 2-[(2R,3S)-2-amino-3-fluorobutyl]-3,5-dichloro-7-{[(1,3-thiazol-2-yl)methyl]amino}-1-oxa-4-azaindene], the half-maximal inhibitory concentration (IC50) (in the test with total ATXN3 protein; in test [1]) was 0.01 to 100 nM each time. In the test with ATXN3-HiBiT protein, this molecule returned an EC50 of 101 to 500 nM.
With `C[C@H](F)[C@H](N)Cc1oc2c(NCc3ccccc3)cc(Cl)nc2c1Cl` [Compound 110, 2-[(2R,3S)-2-amino-3-fluorobutyl]-7-benzylamino-3,5-dichloro-1-oxa-4-azaindene], the IC50 (with total ATXN3 protein; in test [1]) was 101 to 500 nM throughout. In the test with ATXN3-HiBiT protein, this molecule gave a half-maximal effective concentration (EC50) of 101 to 500 nM.
Consider `Cc1c(C[C@@H](N)[C@H](C)F)oc2c(NCc3cccs3)cc(C#N)nc12` [Compound 111, 2-[(2R,3S)-2-amino-3-fluorobutyl]-3-methyl-7-thenylamino-1-oxa-4-aza-5-indenecarbonitrile], for which the half-inhibitory concentration (IC50) (with total ATXN3 protein; in test [1]) was 101 to 500 nM throughout. The same molecule yielded an EC50 with ATXN3-HiBiT protein of 101 to 500 nM.
With `C#Cc1cc(NCc2ccco2)c2oc(C[C@H](C)N)c(Br)c2n1` [Compound 112, 2-[(S)-2-aminopropyl]-3-bromo-5-ethynyl-7-(furfurylamino)-1-oxa-4-azaindene], the half-maximal inhibitory concentration (IC50) (in the test with total ATXN3 protein; in test [1]) was 101 to 500 nM in each case. Also, the EC50 in the test on ATXN3-HiBiT protein was in the range of 0.01 to 100 nM.
Turning to `COC[C@H](N)Cc1oc2c(NCc3ccncc3)cc(Cl)nc2c1Cl` [Compound 113, 2-[(R)-2-amino-3-methoxypropyl]-3,5-dichloro-7-{[(4-pyridyl)methyl]amino}-1-oxa-4-azaindene], the concentration for half-maximal inhibition (IC50) (in the test on total ATXN3 protein; in test [1]) was 101 to 500 nM each time. Further, the EC50 in the test on ATXN3-HiBiT protein was 101 to 500 nM.
With `C[C@@H](F)[C@H](N)Cc1oc2c(NCc3ccco3)cc(Cl)nc2c1Br` [Compound 114, 2-[(2R,3R)-2-amino-3-fluorobutyl]-3-bromo-5-chloro-7-(furfurylamino)-1-oxa-4-azaindene], the IC50 (in the test with total ATXN3 protein; in test [1]) was 501 to 5000 nM in each case. Further, the 50% effective concentration (EC50) in the test on ATXN3-HiBiT protein is 501 to 5000 nM.
As for `N[C@@H](COC1CC1)Cc1oc2c(NCc3cccs3)cc(Cl)nc2c1Br` [Compound 115, 2-[(R)-2-amino-3-cyclopropoxypropyl]-3-bromo-5-chloro-7-thenylamino-1-oxa-4-azaindene], the IC50 (in the test with total ATXN3 protein; in test [1]) was 101 to 500 nM each time. Also, in the test with ATXN3-HiBiT protein, the EC50 was 101 to 500 nM.
As to `N[C@@H](COC(F)(F)F)Cc1oc2c(NCc3cccs3)cc(Cl)nc2c1Br` [Compound 116, 2-[(R)-2-amino-3-trifluoromethoxypropyl]-3-bromo-5-chloro-7-thenylamino-1-oxa-4-azaindene], the IC50 (in the test on total ATXN3 protein; in test [1]) was 101 to 500 nM each time. The molecule also registered a concentration giving a half-maximal response (EC50) in the test with ATXN3-HiBiT protein of 501 to 5000 nM.
For the molecule `N[C@@H](COC(F)F)Cc1oc2c(NCc3cccs3)cc(Cl)nc2c1Br` [Compound 117, 2-[(R)-2-amino-3-difluoromethoxypropyl]-3-bromo-5-chloro-7-thenylamino-1-oxa-4-azaindene], the half-inhibitory concentration (IC50) (in the test on total ATXN3 protein; in test [1]) was 0.01 to 100 nM each time. The EC50 in the test on ATXN3-HiBiT protein is 0.01 to 100 nM.
Consider `C[C@H](F)[C@H](N)Cc1oc2c(NCc3ccco3)cc(Cl)nc2c1Br` [Compound 118, 2-[(2R,3S)-2-amino-3-fluorobutyl]-3-bromo-5-chloro-7-(furfurylamino)-1-oxa-4-azaindene], for which the half-maximal inhibitory concentration (IC50) (in the test with total ATXN3 protein; in test [1]) was 0.01 to 100 nM in each case. The EC50 with ATXN3-HiBiT protein is 0.01 to 100 nM.
With `C[C@H](F)[C@H](N)Cc1oc2c(NCc3ccncc3)cc(Cl)nc2c1Br` [Compound 119, 2-[(2R,3S)-2-amino-3-fluorobutyl]-3-bromo-5-chloro-7-{[(4-pyridyl)methyl]amino}-1-oxa-4-azaindene], the IC50 (in the test on total ATXN3 protein; in test [1]) was 0.01 to 100 nM throughout. In the test on ATXN3-HiBiT protein, this molecule registered an EC50 of 101 to 500 nM.
With `C#Cc1c(C[C@@H](N)CC(F)(F)F)oc2c(NCc3ccco3)cc(Cl)nc12` [Compound 120, 2-[(R)-2-amino-4,4,4-trifluorobutyl]-5-chloro-3-ethynyl-7-(furfurylamino)-1-oxa-4-azaindene], the half-inhibitory concentration (IC50) (in the test on total ATXN3 protein; in test [1]) was 101 to 500 nM throughout. Further, the EC50 in the test on ATXN3-HiBiT protein was in the range of 501 to 5000 nM.
As for `C#Cc1c(C[C@@H](N)CC(F)(F)F)oc2c(NCc3cccs3)cc(Cl)nc12` [Compound 121, 2-[(R)-2-amino-4,4,4-trifluorobutyl]-5-chloro-3-ethynyl-7-thenylamino-1-oxa-4-azaindene], the 50% inhibitory concentration (IC50) (in the test on total ATXN3 protein; in test [1]) was 101 to 500 nM each time. Besides, the 50% effective concentration (EC50) in the test on ATXN3-HiBiT protein fell in the range of 101 to 500 nM.
`C#Cc1c(C[C@@H](N)[C@H](C)F)oc2c(NCc3ccco3)cc(Cl)nc12` [Compound 122, 2-[(2R,3S)-2-amino-3-fluorobutyl]-5-chloro-3-ethynyl-7-(furfurylamino)-1-oxa-4-azaindene]: the IC50 (with total ATXN3 protein; in test [1]) was 0.01 to 100 nM throughout. This molecule also had an EC50 in the test on ATXN3-HiBiT protein of 0.01 to 100 nM.
For `C#Cc1c(C[C@@H](N)[C@H](C)F)oc2c(NCc3cccs3)cc(Cl)nc12` [Compound 123, 2-[(2R,3S)-2-amino-3-fluorobutyl]-5-chloro-3-ethynyl-7-thenylamino-1-oxa-4-azaindene], the concentration for half-maximal inhibition (IC50) (in the test on total ATXN3 protein; in test [1]) was 0.01 to 100 nM throughout. The EC50 with ATXN3-HiBiT protein lay within 0.01 to 100 nM.
On to `C[C@H](N)Cc1oc2c(NCc3ncco3)cc(Cl)nc2c1Br` [Compound 124, 2-[(2S)-2-aminopropyl]-3-bromo-5-chloro-N-(1,3-oxazol-2-ylmethyl) furo[3,2-b]pyridin-7-amine], for which the IC50 (in the test with total ATXN3 protein; in test [1]) was 501 to 5000 nM throughout. In the test on ATXN3-HiBiT protein, this molecule returned a half-maximal effective concentration (EC50) of 501 to 5000 nM.
As to `C[C@H](O)[C@H](N)Cc1oc2c(NCc3cccs3)cc(Cl)nc2c1Br` [Compound 125, (2S,3R)-3-amino-4-(3-bromo-5-chloro-7-thenylamino-1-oxa-4-aza-2-indenyl)-2-butanol], the concentration for half-maximal inhibition (IC50) (with total ATXN3 protein; in test [1]) was 0.01 to 100 nM throughout. In the test on ATXN3-HiBiT protein, this molecule displayed a concentration giving a half-maximal response (EC50) of 0.01 to 100 nM.
In the case of `C[C@@H](O)[C@H](N)Cc1oc2c(NCc3cccs3)cc(Cl)nc2c1Br` [Compound 126, (2R,3R)-3-amino-4-(3-bromo-5-chloro-7-thenylamino-1-oxa-4-aza-2-indenyl)-2-butanol], the IC50 (with total ATXN3 protein; in test [1]) was 101 to 500 nM each time. For the same molecule, the EC50 in the test on ATXN3-HiBiT protein is 101 to 500 nM.
As to `N[C@@H](CCO)Cc1oc2c(NCc3cccs3)cc(Cl)nc2c1Br` [Compound 131, (S)-3-amino-4-(3-bromo-5-chloro-7-thenylamino-1-oxa-4-aza-2-indenyl)-1-butanol], the IC50 in the test with total ATXN3 protein lay in the range of 0.01 to 100 nM; in test [1] it was 101 to 500 nM. The molecule further displayed a half-maximal effective concentration (EC50) in the test on ATXN3-HiBiT protein of 0.01 to 100 nM.
Turning to `CC#C[C@H](N)Cc1oc2c(NCc3cccs3)cc(Cl)nc2c1Br` [Compound 132, 2-[(R)-2-amino-3-pentynyl]-3-bromo-5-chloro-7-thenylamino-1-oxa-4-azaindene], the IC50 in the test on total ATXN3 protein lay within 101 to 500 nM; in test [1], 501 to 5000 nM. Moreover, the EC50 in the test with ATXN3-HiBiT protein was in the range of 501 to 5000 nM.
`N[C@H](Cc1oc2c(NCc3cccs3)cc(Cl)nc2c1Br)C1CC(F)(F)C1` [Compound 133, 2-[(R)-2-amino-2-(3,3-difluorocyclobutyl)ethyl]-3-bromo-5-chloro-7-thenylamino-1-oxa-4-azaindene]: the half-inhibitory concentration (IC50) (with total ATXN3 protein; in test [1]) was 501 to 5000 nM in each case. The molecule further returned a half-maximal effective concentration (EC50) with ATXN3-HiBiT protein of 501 to 5000 nM.
